Legend:
human cereblon = molecular target: T1, human cereblon (Homo sapiens, UniProt Q96SW2); assay: cereblon/BRD3 binding assay (AlphaScreen in methods, FRET assay in results); conditions: dBET1-Cereblon-BRD3 interaction
T1 construct: purchased BPS Bioscience 79770
Protocol: Following 30 min incubation with shaking at room temperature, AlphaLISA anti-FLAG Acceptor and Alpha Glutathione Donor beads (PerkinElmer) were sequentially added and then incubated for a further 1 h at room temperature for each of the added chemicals. Alpha counts were, thereafter, recorded on a Synergy Neo2 (BioTek, Agilent, Santa Clara, CA). The relative activity of the alpha signal was calculated after subtraction of the “blank value” from all readings, and the value of vehicle group was then set as 100%.

[1] = test system: mice subjected to controlled cortical impact (CCI) TBI; assay: CCI TBI in mice: histology and GFAP/IBA1 immunohistochemistry; assay type: in vivo, mouse
Protocol: For behavioral analyses, mice were assessed for spatial memory, gait function, motor coordination/balance function and home cage activity. The animals were subsequently evaluated for cellular changes using histology and immunohistochemistry after euthanasia.
In order to develop a controlled cortical impact (CCI) model of TBI, mice were anesthetized with 2.5% 2,2,2-tribromoethanol (Avertin, 400 mg/kg, I.P.) (Sigma, St. Louis, MO, USA) and placed in a stereotaxic frame (Kopf Instruments, Tujunga, CA, USA). A 4 mm craniotomy was performed under sterile procedures; the craniotomy point was selected midway between the lambda and bregma sutures, and laterally midway between the central suture and the temporalis muscle. The skull fragment was then carefully removed without disruption of the underlying dura on the right side of the head. Before injury, the tip of the impactor was angled and kept perpendicular to the exposed cortical surface. The mouse CCI instrument consisted of an electromagnetic impactor, Impact One (Leica Biosystems Inc., Buffalo Grove, IL, USA) that allows independent manipulation of injury severity by adjusting the contact duration and velocity of a metal impactor and the depth of cortical deformation. In these experiments, the contact velocity was set at 5.0 m/s, the dwell time was set at 0.2 s, and the deformation depth was set at 1.5 mm to produce a moderate TBI. The injury site was cleaned and dried by use of sterile cotton tipped applicators prior to suturing the wound. During surgery and recovery, the body temperature of all animals was maintained at 36–37 °C by using a heating pad.
Two weeks following injury, mice were deeply anesthetized using isoflurane and underwent transcardial perfusion with 30 ml of phosphate-buffered saline (PBS) followed by 120 ml of 4% paraformaldehyde (PFA) in PBS. The brains were collected and placed into a 4% PFA solution for post-fixation overnight, and then transferred to 25% followed by 30% sucrose solution in PBS for dehydration. Sections of a region extending from the striatum to the hippocampus were cut coronally into 25 μm thickness using a cryostat (Leica Biosystems Inc., Buffalo Grove, IL, USA) and stored in a cryoprotectant solution. These sections were subjected to Giemsa (nuclear/chromosomal) staining and immunohistochemical analysis.
Brain sections obtained 2 weeks post-TBI, with a thickness of 25 µm, were placed onto slides. These sections were stained using a 10% Giemsa KH2PO4 buffered solution (pH 4.5) for 30 min at 40 °C. Following a rinse, the slides underwent de-staining, differentiation, dehydration in absolute ethanol, cleared in xylene, and then were cover-slipped. Subsequently, the slides were scanned using an All-in-One Fluorescence Microscope BZ-X710 (Keyence Corporation of America, Itasca, IL, USA). Brain image areas were quantified using ImageJ 1.52q software (National Institutes of Health, Bethesda, MD, USA). The contusion volume size and lateral ventricle size were determined as described previously, using the calculation formulas as follows:
Contusion volume size: Σ (area of contralateral hemisphere–area of ipsilateral hemisphere)/Σ area of contralateral hemisphere × 100.
Lateral ventricle size: Σ area of ipsilateral lateral ventricle/Σ area of contralateral lateral ventricle.
Nine brain sections from each mouse were quantified, spanning regions from bregma 0.86 mm to − 1.46 mm.
Immunohistochemistry for GFAP and IBA1 was performed as described previously. […]

[2] = test system: LPS-induced cytokines (TNF-α, IL-6, IL-1β, KC/GRO, IL-10); assay: systemic LPS challenge in mice, plasma and cerebral cortex cytokines; assay type: in vivo, mouse
Protocol: 8-week-old male C57/BL6 J mice (25–30 g; n = 28) were randomly assigned to five experimental groups. […] Rolipram, a discontinued PDE4 inhibitor, with known anti-inflammatory activity was used as a positive control. One hour later, animals were administered either LPS (3 mg/kg, serotype 0111:B4, Sigma Aldrich, in normal saline, 0.1 mL/10 g) or an alike volume of saline (without LPS) via the I.P. route. The LPS dose was selected from prior pilot studies to provide a substantial but sub-maximal rise in plasma pro-inflammatory cytokine levels, in line with our prior research. […] Four hours after LPS administration, animals were euthanized, and blood and brain tissue were collected and placed on wet ice. Plasma was quickly separated from blood by centrifugation (10,000g, 5 min, 4 °C), and together with a brain sample (cerebral cortex), were stored at − 80 °C. At a later time, cerebral cortex samples were sonicated in a TRIS-based lysis buffer (Mesoscale Discovery) with 3 × protease/phosphatase inhibitors (Halt™ Protease and Phosphatase Inhibitor Cocktail, Thermo Fisher Scientific, Waltham, MA, USA). Samples were then centrifuged (10,000g, 10 min, 4 °C) and protein concentrations were quantified by bicinchoninic acid assay (BCA, Thermo Fisher Scientific). Mouse plasma and cerebral cortex samples were analyzed by multi-pro-inflammatory cytokine ELISA (V-PLEX Pro-inflammatory Panel 1 Mouse Kit, Mesoscale Discovery) following the manufacturer’s protocol.

[3] = 2 weeks after CCI, 13.23 and 26.47 mg/kg I.P. at 30 min and 24 h
[4] = both low and high doses, p < 0.0001
[5] = 26.5 and 53 mg/kg I.P. 1 h before LPS 3 mg/kg, 4 h, p < 0.05 to < 0.0001
[6] = cerebral cortex, 26.5 and 53 mg/kg I.P., LPS 3 mg/kg, 4 h

T1 sequence (Q96SW2 whole entry): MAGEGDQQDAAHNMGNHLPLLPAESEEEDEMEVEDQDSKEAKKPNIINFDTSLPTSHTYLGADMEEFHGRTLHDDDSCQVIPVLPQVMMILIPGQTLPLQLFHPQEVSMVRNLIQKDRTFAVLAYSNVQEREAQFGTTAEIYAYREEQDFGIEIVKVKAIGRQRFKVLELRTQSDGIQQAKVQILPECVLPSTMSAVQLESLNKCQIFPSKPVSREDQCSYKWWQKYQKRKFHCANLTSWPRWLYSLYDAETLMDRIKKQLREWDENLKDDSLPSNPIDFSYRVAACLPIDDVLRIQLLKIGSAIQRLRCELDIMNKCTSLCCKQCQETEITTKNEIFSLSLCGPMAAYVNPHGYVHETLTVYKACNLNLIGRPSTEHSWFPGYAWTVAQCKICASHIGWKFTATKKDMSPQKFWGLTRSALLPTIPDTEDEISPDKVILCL
T1 sequence (Q16531 whole entry partner): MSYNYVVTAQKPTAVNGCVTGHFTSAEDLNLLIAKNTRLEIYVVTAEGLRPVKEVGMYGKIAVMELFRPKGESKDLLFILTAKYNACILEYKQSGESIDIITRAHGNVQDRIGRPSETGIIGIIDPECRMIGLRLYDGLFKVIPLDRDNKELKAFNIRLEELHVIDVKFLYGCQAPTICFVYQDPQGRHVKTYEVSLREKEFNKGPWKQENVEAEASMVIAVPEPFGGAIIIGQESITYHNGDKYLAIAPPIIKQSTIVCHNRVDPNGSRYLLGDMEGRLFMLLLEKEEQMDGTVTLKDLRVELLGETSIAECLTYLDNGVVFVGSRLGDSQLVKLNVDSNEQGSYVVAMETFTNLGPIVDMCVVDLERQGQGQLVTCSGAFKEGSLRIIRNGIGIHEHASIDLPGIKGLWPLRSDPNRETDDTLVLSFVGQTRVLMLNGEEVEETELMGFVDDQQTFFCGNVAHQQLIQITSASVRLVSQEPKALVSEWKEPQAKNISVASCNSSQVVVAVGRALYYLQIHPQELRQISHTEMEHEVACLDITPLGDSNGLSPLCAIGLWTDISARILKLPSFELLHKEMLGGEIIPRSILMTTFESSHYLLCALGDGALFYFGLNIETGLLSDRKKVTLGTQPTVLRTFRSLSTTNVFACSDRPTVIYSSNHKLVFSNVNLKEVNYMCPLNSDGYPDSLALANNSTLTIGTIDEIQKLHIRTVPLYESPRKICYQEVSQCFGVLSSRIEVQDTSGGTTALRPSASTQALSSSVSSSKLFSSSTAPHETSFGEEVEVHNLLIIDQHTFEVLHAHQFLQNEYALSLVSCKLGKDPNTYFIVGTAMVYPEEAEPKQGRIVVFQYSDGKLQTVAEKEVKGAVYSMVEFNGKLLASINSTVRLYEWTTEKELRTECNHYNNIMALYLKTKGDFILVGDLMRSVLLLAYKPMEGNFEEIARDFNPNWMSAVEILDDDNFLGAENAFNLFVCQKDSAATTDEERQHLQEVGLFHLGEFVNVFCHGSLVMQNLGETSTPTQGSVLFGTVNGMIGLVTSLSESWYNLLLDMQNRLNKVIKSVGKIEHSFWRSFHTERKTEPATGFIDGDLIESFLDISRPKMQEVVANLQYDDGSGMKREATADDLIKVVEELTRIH
T1 sequence (Q13619 whole entry partner): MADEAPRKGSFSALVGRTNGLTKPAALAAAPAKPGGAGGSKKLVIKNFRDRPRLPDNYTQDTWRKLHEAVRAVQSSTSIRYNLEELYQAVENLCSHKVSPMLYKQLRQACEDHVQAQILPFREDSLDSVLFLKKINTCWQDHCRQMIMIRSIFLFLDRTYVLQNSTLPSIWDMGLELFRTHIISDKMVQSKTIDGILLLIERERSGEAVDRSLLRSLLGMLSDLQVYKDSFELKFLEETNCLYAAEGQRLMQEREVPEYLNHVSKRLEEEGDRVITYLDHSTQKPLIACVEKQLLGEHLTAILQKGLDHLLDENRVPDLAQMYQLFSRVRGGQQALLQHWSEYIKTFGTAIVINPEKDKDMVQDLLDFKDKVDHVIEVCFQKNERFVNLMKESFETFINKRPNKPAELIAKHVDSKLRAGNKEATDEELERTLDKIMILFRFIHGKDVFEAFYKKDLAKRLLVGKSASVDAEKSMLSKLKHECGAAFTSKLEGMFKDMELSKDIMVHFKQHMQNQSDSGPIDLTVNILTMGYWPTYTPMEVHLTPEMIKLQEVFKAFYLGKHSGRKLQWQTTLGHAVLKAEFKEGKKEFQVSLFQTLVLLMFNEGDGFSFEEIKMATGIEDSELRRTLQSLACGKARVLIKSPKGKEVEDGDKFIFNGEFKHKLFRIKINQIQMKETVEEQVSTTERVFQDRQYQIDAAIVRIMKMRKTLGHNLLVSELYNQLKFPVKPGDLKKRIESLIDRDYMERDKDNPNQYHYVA
T1 sequence (P62877 whole entry partner): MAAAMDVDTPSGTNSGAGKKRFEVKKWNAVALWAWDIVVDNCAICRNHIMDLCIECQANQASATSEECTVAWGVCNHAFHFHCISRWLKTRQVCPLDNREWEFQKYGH

Nc1cccc2c1C(=S)N(C1CCC(=O)NC1=O)C2=O (stereo not shown) [3-MP, 3-monothiopomalidomide]
IC50 (human cereblon): 210 nM
contusion volume (loss of cortical tissue) [1, 3]: unchanged
lateral ventricle enlargement [1, 3]: unchanged
TBI-induced morphological alterations in astrocytes (surface area, cell volume, branch area, branch length, number of branches) ([1]; both low and high doses, ipsilateral (p < 0.0001) and contralateral cortex): significantly ameliorated
CCI-induced microglial morphological alterations (ramification index, branches, branch length, spanned area, junctions, endpoints) [1, 4]: partially but significantly returned
astrocyte complexity (total Sholl intersections) [1, 4]: significantly mitigated
LPS-mediated elevation in plasma IL-6 [2, 5]: lowered
LPS-mediated elevation in plasma TNF-α [2, 5]: lowered
LPS-induced brain IL-1β [2, 6]: dose-dependent reduction
LPS-induced brain IL-6 [2, 6]: dose-dependent reduction
LPS-induced brain KC/GRO [2, 6]: dose-dependent reduction
LPS-induced brain TNF-α [2, 6]: dose-dependent reduction
levels of the anti-inflammatory cytokine IL-10 ([2]; plasma and brain, 26.5 and 53 mg/kg I.P., compared to LPS treatment): unaffected

Source: article PMC12172326 (Journal of Biomedical Science, 2025)
